Key:
[1] = Pharmacokinetic evaluation in beagles after intravenous injection and oral administration; assay type: in vivo; settings: 0.1 mg/kg
Description: The test sample (Complex (IA) prepared from example 2 of the invention) was dissolved in normal saline (100%) to get a solution at a concentration of 0.04 mg/mL, which was administered by i.v; the same test sample was suspended in 0.5% HPMC to get a suspension at a concentration of 0.02 mg/mL, 0.10 mg/mL, 0.50 mg/mL, 2.00 mg/mL, which was administered by gavage. The beagles were grouped randomly, each dosage group had 6 beagles, half male and half female, which were fasted for 12 h before administered, free drank. After administration of 4 h, beagles uniform ate. The single oral administration group was grouped to 4 dosage groups, which were administered the test sample suspension by gavage respectively, the dosage respectively was 0.1, 0.5, 2.5 and 10 mg/kg, and the volume of the suspension was 5 mL/kg. The blood samples were collected before administration of 0 h, and after administration of 0.25, 0.5, 1.0, 2.0, 4.0, 6.0, 8.0, 10, 12 and 48 h from lateral small saphenous vein or medial head vein of forelimb, which were placed into EDTA-K2 anticoagulative tubes. The i.v group had one dosage group, the test sample solution was administered by i.v at a dosage of 0.1 mg/kg, and the volume of the solution was 2.5 mL/kg. The blood samples were collected before administration of 0 h, and after administration of 5 min, 15 min, 0.5, 1.0, 2.0, 4.0, 6.0, 8.0, 10, 12 and 48 h from lateral small saphenous vein or medial head vein of forelimb, which were placed into EDTA-K2 anticoagulative tubes. The blood samples were centrifuged for 2 min at 11000 rpm, the plasma samples were isolated and stored at −70° C.±10° C.
The concentration of the test sample in plasma was analyzed by the LC-MS/MS method, the pharmacokinetic parameters were calculaged by the […] model method using WinNonlin 6.3 software, and drug-time curve was plotted.
The LC/MS/MS system comprised Agilent 1200 series vacuum […], binary pumps, well-plate autosampler, thermostatted column compartment, the API 4000 QTRAP Triple Quadrupole Mass Spectrometer with an electrosprayionization (ESI) source. Quantitative analysis was carried out using MRM mode.
A Waters Xbridge-C18, 2.1×30 mm, […] column was used for the analysis, 5 μL of the sample was injected. Analysis condition: The mobile phase was […] ammonium formate+0.1% formic acid in water (A) and 2 mM ammonium formate+0.1% formic acidin methanol (B). The flow rate was 0.4 mL/min And the gradient of Mobile phase was in the Table E.

[2] = target: T1, human SGLT-1 (Homo sapiens, UniProt P13866); experiment: Inhibitory activity against SGLT-1, [14C]-AMG uptake in CHO cells; assay type: cell-based; settings: CHO cells expressing human SGLT-1, [14C]-AMG
T1 construct: expressed in transfected cells; host or cells: CHO cells (Flp-in CHO)
T1 sequence (P13866 1-664): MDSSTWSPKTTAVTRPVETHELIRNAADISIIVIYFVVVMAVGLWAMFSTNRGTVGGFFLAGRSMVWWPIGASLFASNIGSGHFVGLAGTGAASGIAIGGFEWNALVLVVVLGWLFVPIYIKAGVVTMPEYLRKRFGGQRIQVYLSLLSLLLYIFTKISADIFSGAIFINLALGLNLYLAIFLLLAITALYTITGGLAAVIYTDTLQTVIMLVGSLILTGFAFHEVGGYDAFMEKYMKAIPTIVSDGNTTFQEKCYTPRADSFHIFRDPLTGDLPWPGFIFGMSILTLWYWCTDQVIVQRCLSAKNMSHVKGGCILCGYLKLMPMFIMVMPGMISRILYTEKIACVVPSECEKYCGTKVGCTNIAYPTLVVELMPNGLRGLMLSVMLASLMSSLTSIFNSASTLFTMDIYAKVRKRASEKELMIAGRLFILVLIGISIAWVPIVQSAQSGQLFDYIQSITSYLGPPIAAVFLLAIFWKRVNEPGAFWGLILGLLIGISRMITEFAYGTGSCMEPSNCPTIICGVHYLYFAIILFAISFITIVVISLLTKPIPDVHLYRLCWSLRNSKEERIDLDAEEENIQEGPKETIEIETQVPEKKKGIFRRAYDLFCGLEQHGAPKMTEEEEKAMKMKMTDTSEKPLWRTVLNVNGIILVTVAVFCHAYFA
Description: The following method was used for detecting inhibitory activity of the compounds of the invention against SGLT-1 and SGLT-2.
3×10^4 of FIP-in CHO cells transfected Mock and CHO cells expressing human SGLT-1/SGLT-2 gene were seeded into a 96-well cell culture plate; the cells were incubated for 12 hours, and then to each well was added 150 μL of Na-free buffer to wash the cells once; and then to each well were added 50 μL of Na buffer containing the compound at different concentrations and 0.5 μM [^14C]-AMG, and the plate was incubated in a incubator at 37° C. for 1 hour, the reaction was terminated by adding 150 μL of pre-cooled Na-free buffer; the cells were further washed with Na-free buffer 3 times and the residual liquid was removed; to each well was added 20 μL of pre-cooled NaOH ([…]), the plate was vibrated at 900 rpm for 5 min; and then to each well was added 80 μL of scintillation solution, the plate was vibrated at 600 rpm for 5 min; the plate was analyzed on liquid scintillation counter.

[3] = both sexes, beagle, dog, plasma, iv, i.v
[4] = both sexes, beagle, dog, plasma, po, p.o

`CCOc1ccc(Cc2cc([C@]34OC[C@]([C@@H](C)O)(O3)[C@@H](O)[C@H](O)[C@H]4O)ccc2Cl)cc1` [Complex (IA), Complex (IA) of (1R,2S,3S,4R,5S)-5-(4-chloro-3-(4-ethoxybenzyl)phenyl)-1-((1R)-1-hydroxyethyl)-6,8-dioxabicyclo[3.2.1]octane-2,3,4-triol (I-n) and L-pyroglutamic acid] showed an AUC(0-t) [1, 3] of 617 ng·h/mL, a Cmax [1, 3] of 148 ng/mL and a half-life [1, 3] of 538 min. The half-life ([1]; both sexes, beagle, dog, plasma, oral, p.o) was 533 min, the bioavailability ([1]; both sexes, beagle, dog, plasma, po, p.o, read-out: F (oral bioavailability)) was 97.5% and the AUC(0-t) [1, 4] was 602 ng·h/mL. The Cmax [1, 4] was 66.2 ng/mL, the “F (oral bioavailability)” value ([1]; p.o) was 97.57% and the SGLT-1 inhibitory activity [2] was “has SGLT-2 and SGLT-1 inhibitory activity”.
